Measured values as given in US20140086977A1, “TIGHT JUNCTIONS MODULATORS” (THE UNIVERSITY OF MANCHESTER, priority 2011, published 2014).
Entries after “also recorded” stand apart in the source; their conditions may differ.

What was measured:
[1] = tested on: Normal human epidermal keratinocytes (NHEK); test: TEER in NHEK treated with plant polyphenols; assay type: cell-based; conditions: for Effect on TEER at day four vs untreated control: 100 μM myricetin or Kaempferol, quercetin concentration not stated, Mann Whitney U test
Protocol: Normal human epidermal keratinocytes (NHEK) were purchased from Promocell (Heidelberg, Germany) and grown on Thincerts™ in proprietary medium containing 0.06 mM calcium chloride. ‘Thincerts’ are small chambers containing a filter on which the cells are grown. The Thincert™ is housed within a conventional 12 well tissue culture plate. This arrangement allows treatment of the cells from either the basal or apical side.
When the cells were confluent, the medium was replaced with new medium but containing 1.8 mM calcium chloride. This induces tight junction formation in NHEK. In experiments where plant polyphenols were tested, a known volume of the plant polyphenol (dissolved in vehicle at a known concentration) was added to both apical and basal chambers of the Thincert™ at the same time as the medium was replaced. In this experiment the plant polyphenols quercetin, Myricetin and Kaempferol were tested.
Tight junctions form over 4 days and this was monitored by measuring the transepithelial electrical resistance (TEER) using an EVOM (world precision instruments). TEER was measured every 24 hours post addition of the test polyphenols and the TEER of control untreated cell monolayers was compared to that of treated cell monolayers.
The methodology set out in Example 6 was repeated, using quercetin at different concentrations. The results are shown in FIG. 8 in which the first bar represents the results for control—untreated cells, the second bar represents the results for cells treated with 100 μM quercetin and the third bar represents the results for cells treated with 10 μM quercetin (see key below). The y-axis represents TEER at 4 days (Ohms.cm^2).

[2] = tested on: Normal primary human keratinocytes (NHEK); test: Transepithelial electrical resistance (TEER) in NHEK after calcium switch, UCA isomers; assay type: cell-based; conditions: for Effect on TEER: differentiated NHEK vs untreated cells
Source text: Transepithelial electrical resistance (TEER) measurements are used in epithelial biology as a marker of TJ integrity. Electrical resistance is a measure of how easily ions can pass through a particular transport route. The higher the resistance the harder it is for ions to pass. Whilst the TEER of a cell monolayer is a function of both transcellular and paracellular transport routes, the value of TEER is, however, dominated by the contribution from the paracellular route. TEER of monolayers can be measured using an Epithelial Voltmeter (for example EVOM from WPI Ltd). This instrument passes a current across a monolayer of cells and calculates the resistance according to Ohm's law (V=IR, where V is potential difference, I is current and R is resistance). Therefore increased TEER means […] TJ function. Preferably TEER measurements are carried out at room temperature.
Normal primary human keratinocytes (NHEK) were grown on Thincerts™ in medium containing 0.6 mM calcium until the cells were confluent. TJ formation was the induced by calcium switch and 25 ug/ml cis-UCA was added to the cells which were incubated for 96 hours and the transepithelial electrical resistance (TEER) measured every 24 hours post calcium switch.
(§1) Exposure of human skin to solar simulated ultraviolet radiation (UVR) transiently impairs skin barrier function (SBF) which recovers over a period of 2-14 days. […] Trans-urocanic acid (trans-UCA) is a major epidermal chromophore located in the stratum corneum and exposure of human skin to UVR photoisomerises trans-UCA to cis-UCA. In a previous Affymetrix study, the Cld-1 encoding gene, CLDN1, was listed as one of several markers induced by cis- but not trans-UCA, in normal human epidermal keratinocytes (NHEK) (Kaneko et al, J Immunol 2008, 181, 217-24). We therefore examined UCA isomer-dependent changes in Cld-1 protein expression (assessed by immunoblotting) and TJ function (assessed as transepithelial electrical resistance; TEER) in differentiated NHEK in vitro.

claudin 1 = test: Claudin 1 protein levels in NHEK by immunoblot; assay type: cell-based, human; conditions: for Effect on claudin 1 protein levels: 24-96 hours post treatment, immunoblot
Protocol: Normal primary human keratinocytes (NHEK) were grown in proprietary medium containing 0.6 mM calcium chloride. When the cells reached confluence they were placed in medium containing 1.8 mM calcium chloride (calcium switch) and either cis-UCA, irradiated trans-UCA, unirradiated trans-UCA or control medium. Cells were the incubated for 96 hours during which time TJs form. At 24, 48, 72 or 96 hours post treatment, cells were harvested and claudin 1 levels analysed by immunoblot.
NHEK (growing as described above) were treated with different concentrations of cis-UCA for 48 hours after which claudin 1 levels were examined using immunoblotting.
as §1

[3] = tested on: claudins 1 and 4, occludin and ZO-1 mRNA; test: Real-time PCR of TJ gene message levels in NHEK; assay type: cell-based, human; conditions: 25 ug/ml, 48 hours, vs non-treated keratinocytes
Protocol: Normal primary human keratinocytes (NHEK) were grown in proprietary medium containing 0.6 mM calcium chloride. When the cells reached confluence they were placed in medium containing […] calcium chloride (calcium switch) and 25 ug/ml cis-UCA was added. Cells were incubated for 48 hours and message levels for the TJ genes claudins 1 and 4, occludin and ZO-1 were quantified using real-time PCR using non-treated keratinocytes as a control (FIG. 3).

O=c1c(O)c(-c2ccc(O)cc2)oc2cc(O)cc(O)c12 [Kaempferol]
Time to barrier formation ([1]; 100 μM): reduces | Effect on TEER at day four vs untreated control [1]: increases

O=c1c(O)c(-c2cc(O)c(O)c(O)c2)oc2cc(O)cc(O)c12 [Myricetin]
Effect on TEER at day four vs untreated control [1]: significantly increase

O=C(O)/C=C\c1c[nH]cn1 [cis-UCA, cis-urocanic acid]
TEER higher than in untreated cells ([2]; 25 ug/ml cis-UCA, up to 96 hours post calcium switch): approximately 150 ohms.cm^2 | Effect on TEER [2]: higher | TEER higher than in untreated cells ([2]; differentiated NHEK, n=6, p=0.004): ~150 ohms/cm^2 | Effect on claudin 1 protein levels (claudin 1): time dependent increase | Effect on claudin 1 protein levels (claudin 1; listed as Cis-UCA): time and concentration dependent increase | Dose dependence of claudin 1 protein levels (claudin 1; 48 hours, greatest at 25 ug/ml): dose dependent increase | Increase in Cld-1 protein (claudin 1; maximal 48 h post-treatment with 25 μg/ml, n=4, p=0.02): ~3 fold | Levels of mRNA for claudins 1, 4, occludin and ZO-1 [3]: increases

O=c1c(O)c(-c2ccc(O)c(O)c2)oc2cc(O)cc(O)c12 [quercetin]
Effect on TEER at day four vs untreated control [1]: significantly increase | Dose dependence of TEER at 4 days ([1]; 100 μM vs 10 μM quercetin): higher quantities of quercetin have a more beneficial effect

O=C(O)/C=C/c1cnc[nH]1 [trans-UCA, trans-urocanic acid, reference compound]
Effect on TEER [2]: no effect | Effect on claudin 1 protein levels (claudin 1): no effect | Effect on claudin 1 protein levels (claudin 1; listed as unirradiated trans-UCA): does not; also recorded: no effect
